According to patent US20170266319A1, “METHODS AND COMPOSITIONS FOR TREATING CONDITIONS ASSOCIATED WITH SPINAL CORD INJURY” (priority 2016, published 2017):
Entries after “also recorded” stand apart in the source; their conditions may differ.

What was measured:
Assay type in all cases: in vivo
[1] = tested on: hM4Di-expressing Vglut2+ spinal interneurons; experiment: Colorectal distension (CRD) and c-Fos analyses after chemogenetic silencing; details: T3 SCI Vglut2-Cre mice injected with AAV-hSyn-DIO-hM4Di-mCherry; CNO 1.0 mg/kg i.p. 30 min before CRD, day 28 post-injury, vs vehicle
Protocol: Colorectal distension was induced as previously reported3, 12, 13 with minor modification. A 4-French, 60 mm balloon-tipped catheter (Swan-Ganz monitoring catheter model 116F4; Edwards Life Sciences) was inserted 1.5 cm into the rectum before securing the catheter to the tail with surgical tape. The balloon was inflated with 0.2 ml of air for 30 sec then deflated 60 sec. This 90 sec cycle was repeated for 90 min. Mice were perfused 30 min after the final cycle of inflation. The number of c-Fos^+ cells were counted and analyzed in 2 representative horizontal spinal cord sections at T4-9 level from multiple SCI animals with or without CRD stimulation. The number of animals analyzed were: uninjured with or without CRD, n=3/group; T3 SCI (day 28) without CRD, n=3; T3 SCI (day 28) with CRD, n=5; Vglut2-Cre; cc-EGFP+T3 SCI (day 28) with CRD, n=3; Chat-Cre; cc-EGFP+T3 SCI (day 28) with CRD, n=3 (FIG. 7). To evaluate the effects of DREADD in mice with CRD-induced activation of visceral-sympathetic reflex, CNO (1.0 mg/kg body weight, i.p.; Sigma) or vehicle saline was injected into Vglut2-Cre+T3SCI+AAV8-hSyn-DIO-hM4D(Gi)-mCherry mice at day 28 post-injury, 30 min before the induction of CRD (n=3 each) (FIG. 9).

[2] = tested on: Vglut2+ spinal interneurons expressing hM4Di DREADD; experiment: DREADD experiment: T3 SCI immune suppression, Vglut2-Cre mice; details: T3 SCI Vglut2-Cre mice with AAV8-hSyn-DIO-hM4D(Gi)-mCherry; CNO 1 mg/kg 2x/day, day 14-27 post-injury; day 28
Protocol: (§1) AAV8-hSyn-DIO-hM4Di-mCherry (AAV8-hSyn-DIO-hM4D(Gi)-mCherry; 7×10^12 vg/ml; UNC Vector Core) was injected into T5 and 7 levels of the spinal cord of Vglut2-Cre, Chat-Cre, or WT mice at P14 (0.8 μl/site, 0.25 mm lateral, 0.5 mm in depth). […] T3 SCI was induced at 8 weeks old, and then CNO (1.0 mg/kg body weight, i.p.; Sigma) was injected twice per day from day 14 to 27 post-injury (FIG. 3b). Small cohorts of mice from each colony were used as they reached the appropriate age for experimentation. […]
(§2) Spleens were harvested in Flow Cytometry Staining Buffer (eBioscience) and cell suspensions were made by expressing spleen tissue through a cell strainer using the plunger of a 10 ml syringe. […] Splenocytes were counted on a hemocytometer and 5×10^5 cells were incubated with Fc-block (anti-mouse-CD16/CD32 antibody; eBioscience). […] Splenocytes (10,000 events/sample) were analyzed using a FACSCanto flow cytometer with FACSDiva software (BD Biosciences). […] The number of each subset was calculated as the percentage of labeled cells multiplied by the total number of splenocytes.

[3] = tested on: Chat+ spinal interneurons expressing hM4Di DREADD; experiment: DREADD experiment: T3 SCI immune suppression, Chat-Cre mice; details: T3 SCI Chat-Cre mice with AAV8-hSyn-DIO-hM4D(Gi)-mCherry; CNO 1 mg/kg 2x/day, day 14-27 post-injury
Protocol: as §1, §2

C[N+]1([O-])CCN(C2=Nc3cc(Cl)ccc3Nc3ccccc32)CC1 [CNO, clozapine-N-oxide]
c-Fos expression elicited by colorectal distension (silencing of hM4DGi+ spinal neurons) [1]: reduces c-Fos expression; also recorded: significant silencing
Splenic atrophy [2]: reversed
Total numbers of splenocytes, including CD4+ and CD8+ T cells and B220+ B cells [2]: restored to pre-injury levels
Immune protection [3]: modest non-significant immune protection
